Holding throughout (format): cell-based, human
Test [1] has as its system CLL patient cells co-cultured with wild-type bone marrow derived stroma cells. Briefly: Synergism of PKC-β inhibitors with Venetoclax in CLL/stroma co-culture (Compusyn, Bliss Independence model). Conditions: PKC inhibitor 1.25, 2.5, 5 μM prior to Venetoclax 5, 10, 20 nM for 24 hours. On the procedure:
Heatmaps reflect assessment values noted for respective compound combinations, with error (*) indicated below. A scale of 50 to −50, is applied to values, with 50 representing maximal synergism and −50 being maximal antagonism. Non-significant values are by default coloured as neither synergistic nor antagonistic;
Approximately 20,000 wild-type bone marrow derived stroma cells were seeded into tissue culture wells and subsequently co-cultured with approximately 200,000 CLL patient cells. 24 hours thereafter, co-cultures were treated with Enzastaurin, Sotrastaurin or Midostaurin (1.25 μM, 2.5 μM, 5 μM) prior to treatment with Venetoclax. Co-cultures were subsequently treated with Venetoclax (5 nM, 10 nM, 20 nM) for 24 hours. Cells were subsequently evaluated for viability using flow cytometric analysis. Synergism was calculated using Compusyn Software (CRUK), within the Bliss Independence model (FIG. 5).

Test [2] has the same test system. Briefly: 1-hour PKC inhibitor pre-treatment with washout before cytotoxic agent; viability of CLL/stroma co-cultures by Annexin-V-FITC and DAPI flow cytometry. As for the experimental part: (§1) Approximately 20,000 wild-type bone marrow derived stroma cells were seeded into tissue culture wells and subsequently co-cultured with approximately 200,000 CLL patient cells. 24 hours thereafter, co-cultures were treated with 5 μM Enzastaurin for 1 hour at the indicated time-points prior to treatment with Fludarabine or Venetoclax (FIGS. 1A and 2A). Equivalent PKC-β-inhibitor exposure was maintained through removal and subsequent washout of Enzastaurin-treated co-cultures. Co-cultures were centrifuged at 500 g for 5 minutes, prior to removal of Enzastaurin containing media. Washout with cell culture media, was followed by an additional centrifugation at 500 g for 5 minutes, and the replacement of washout media with fresh media. Respective co-cultures were subsequently treated with either Fludarabine (2.5 μM) or Venetoclax (2.5 nM) for 24 hours. Cells were subsequently evaluated for viability using Annexin-V-FITC and DAPI, or 4′,6-diamidino-2-phenylindole, staining on a flow cytometer (FIGS. 1B and 2B).
as §1, with “Bendamustine (FIG. 7).” for “Fludarabine or Venetoclax (FIGS. 1A and 2A).”, “Bendamustine (15” for “either Fludarabine (2.5”, “μM)” for “μM) or Venetoclax (2.5 nM)”, “cytometer.” for “cytometer (FIGS. 1B and 2B).”
Approximately 20,000 wild-type bone marrow derived stroma cells were seeded into tissue culture wells and subsequently co-cultured with approximately 200,000 CLL patient cells. 24 hours thereafter, co-cultures were treated with 5 μM Ruboxistaurin for 1 hour at the indicated time-points prior to treatment with Venetoclax (FIG. 10A). Equivalent PKC-β-inhibitor exposure was maintained through removal and subsequent washout of Ruboxistaurin-treated co-cultures. Co-cultures were centrifuged at 500 g for 5 minutes, prior to removal of Ruboxistaurin containing media. Washout with cell culture media, was followed by an additional centrifugation at 500 g for 5 minutes, and the replacement of washout media with fresh media. Respective co-cultures were subsequently treated with Venetoclax (5 nM) for 24 hours. Cells were subsequently evaluated for viability using Annexin-V-FITC and DAPI, or 4′,6-diamidino-2-phenylindole, staining on a flow cytometer (FIG. 10B).

The test system is the same in test [3]. Briefly: Continuous PKC inhibitor exposure begun before cytotoxic agent; viability of CLL/stroma co-cultures by Annexin-V-FITC and DAPI flow cytometry. On the procedure: Approximately 20,000 wild-type bone marrow derived stroma cells were seeded into tissue culture wells and subsequently co-cultured with approximately 200,000 CLL patient cells. 24 hours thereafter, co-cultures were treated with 5 μM Enzastaurin at the indicated time-points prior to treatment with Venetoclax (FIG. 3A). Co-cultures were subsequently treated with Venetoclax (2.5 nM) for 24 hours. Cells were subsequently evaluated for viability using Annexin-V-FITC and DAPI staining on a flow cytometer (FIG. 3B).
Approximately 20,000 wild-type bone marrow derived stroma cells were seeded into tissue culture wells and subsequently co-cultured with approximately 200,000 CLL patient cells. 24 hours thereafter, co-cultures were treated with 5 μM Enzastaurin at the indicated time-points prior to treatment with Bendamustine (FIG. 8). Co-cultures were subsequently treated with Bendamustine (15 μM) for 24 hours. Cells were subsequently evaluated for viability using Annexin-V-FITC and DAPI staining on a flow cytometer (FIG. 8).
Approximately 20,000 wild-type bone marrow derived stroma cells were seeded into tissue culture wells and subsequently co-cultured with approximately 200,000 CLL patient cells. 24 hours thereafter, co-cultures were treated with 1 μM Midostaurin at the indicated time-points prior to treatment with Bendamustine (FIG. 8). Co-cultures were subsequently treated with Bendamustine (15 μM) for 24 hours. Cells were subsequently evaluated for viability using Annexin-V-FITC and DAPI staining on a flow cytometer (FIG. 9).
For orientation: A flow cytometer gives signals particle by particle.

[4] abbreviates: 5 μM Enzastaurin for 1 hour, then Bendamustine 15 μM for 24 hours.
[5] abbreviates: 5 μM Enzastaurin for 1 hour, then Fludarabine 2.5 μM for 24 hours.
The mark [6] stands for this setting: 5 μM Enzastaurin for 1 hour, then Venetoclax 2.5 nM for 24 hours.
The mark [7] stands for this setting: 5 μM Ruboxistaurin for 1 hour, then Venetoclax 5 nM for 24 hours.

`Cn1cc(C2=C(c3cn(C4CCN(Cc5ccccn5)CC4)c4ccccc34)C(=O)NC2=O)c2ccccc21` [Enzastaurin, 3-(1-methylindol-3-yl)-4-[1-[1-(pyridin-2-ylmethyl)piperidin-4-yl]indol-3-yl]pyrrole-2,5-dione]: the “combinatorial treatment effect with Venetoclax (synergism, Bliss model)” value in test [1] is on record as “synergistic effects”. In addition, in test [2] (setting [4]), the “pre-dosing timepoints showing increased efficacy of Bendamustine” value was in the range of 2 to 6 h and the “pre-dosing timepoints with largest effect on efficacy of Bendamustine” value was in the range of 3 to 6 h. In test [2] (setting [5]), the “pre-dosing time points showing increased efficacy of Fludarabine” value is 2 to 6 h and the “pre-dosing time points with largest effect on efficacy of Fludarabine” value lay in the range of 3 to 6 h. In addition, in test [2] (setting [6]), the “pre-dosing time points showing increased efficacy of Venetoclax” value lay in the range of 2 to 6 h and the “pre-dosing time points with largest effect on efficacy of Venetoclax” value was in the range of 3 to 6 h. Besides, the “pre-dosing time giving greatest efficacy of Bendamustine” value in test [3] (continuous 5 μM Enzastaurin beginning 1, 2, 3, 4, 6, 8 hours prior to Bendamustine 15 μM for 24 hours) is 3 to 6 h. In test [3] (continuous 5 μM Enzastaurin beginning 1, 2, 3, 4, 6, 12 hours prior to Venetoclax 2.5 nM for 24 hours), the “pre-dosing time giving greatest efficacy of Venetoclax” value is 3 to 6 h.

On to `CO[C@@H]1[C@H](N(C)C(=O)c2ccccc2)C[C@H]2O[C@]1(C)n1c3ccccc3c3c4c(c5c6ccccc6n2c5c31)C(=O)NC4` [Midostaurin, N-((5R,7R,8R,9S)-8-methoxy-9-methyl-16-oxo-6,7,8,9,15,16-hexahydro-5H,14H-17-oxa-4b,9a,15-triaza-5,9-methanodibenzo[b,h]cyclonona[jkl]cyclopenta[e]-as-indacen-7-yl)-N-methylbenzamide], for which the “pre-dosing time giving greatest efficacy of Bendamustine” value in test [3] (continuous 1 μM Midostaurin beginning 1, 2, 3, 4, 6, 8 hours prior to Bendamustine 15 μM for 24 hours) lay within 3 to 8 h.

Turning to `CN(C)C[C@@H]1CCn2cc(c3ccccc32)C2=C(C(=O)NC2=O)c2cn(c3ccccc23)CCO1` [Ruboxistaurin], in test [2] (setting [7]), the “pre-dosing time points showing increased efficacy of Venetoclax” value fell in the range of 1 to 6 h and the “pre-dosing time points with most significant effects on efficacy of Venetoclax” value fell in the range of 1 to 4 h.

As to `CN1CCN(c2nc(C3=C(c4c[nH]c5ccccc45)C(O)=NC3=O)c3ccccc3n2)CC1` [Sotrastaurin, 5-hydroxy-4-(1H-indol-3-yl)-3-[2-(4-methylpiperazin-1-yl)quinazolin-4-yl]-2H-pyrrol-2-one], in test [1], the “combinatorial treatment effect with Venetoclax (synergism, Bliss model)” value was “synergistic effects”.

The record behind these values is patent US20230330080A1, “THERAPEUTIC TREATMENT USING PROTEIN KINASE C (PKC) INHIBITORS AND CYTOTOXIC AGENTS” (Cambridge Enterprise Limited, priority 2020, published 2023).
